The target of assay [1] is T1, Hes1 (Mus musculus, UniProt P35428).
T1 construct: endogenous Hes1 in primary mouse keratinocyte lysate, detected by anti-HES1 immunoblot
T1 sequence (P35428 1-282): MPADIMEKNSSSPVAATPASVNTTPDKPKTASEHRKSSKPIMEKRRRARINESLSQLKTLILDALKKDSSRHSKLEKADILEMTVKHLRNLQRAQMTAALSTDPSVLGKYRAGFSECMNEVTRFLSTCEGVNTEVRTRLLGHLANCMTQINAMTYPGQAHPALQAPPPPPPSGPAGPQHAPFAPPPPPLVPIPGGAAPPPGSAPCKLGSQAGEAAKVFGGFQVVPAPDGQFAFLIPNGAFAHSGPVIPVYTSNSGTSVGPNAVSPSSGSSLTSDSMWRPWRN
The experiment in a line: DARTS (pronase protection, anti-HES1 immunoblot). It is filed as biochemical. Particulars: primary mouse keratinocyte lysate; 30 min L-menthol then 20 min pronase, room temperature.

For assay [2], the target named is T2, HES1 (transcription factor hairy and enhancer of split 1) (Homo sapiens, UniProt Q14469).
T2 construct: Human HES1 in pET-28a(+), C-terminal 6xHis tag kept, E. coli BL21(DE3), nickel and size-exclusion purified
T2 sequence (Q14469 1-280): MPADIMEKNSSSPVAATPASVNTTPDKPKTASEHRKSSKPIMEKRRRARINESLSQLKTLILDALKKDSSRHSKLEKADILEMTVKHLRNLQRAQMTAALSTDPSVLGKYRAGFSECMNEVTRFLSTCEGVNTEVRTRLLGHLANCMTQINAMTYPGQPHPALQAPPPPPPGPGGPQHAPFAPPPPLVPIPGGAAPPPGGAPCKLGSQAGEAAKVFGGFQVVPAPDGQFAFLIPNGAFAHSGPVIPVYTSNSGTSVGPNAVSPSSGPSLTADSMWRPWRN
The experiment in a line: microscale thermophoresis (Monolith NT.[…]). The format is binding.

Take `CC(C)[C@@H]1CC[C@@H](C)C[C@H]1O` [L-menthol]: the “DARTS (pronase protection, anti-HES1 immunoblot)” value in assay [1] is “interaction between HES1 and L-menthol was verified in HaCaT cells”. Further, the dissociation constant Kd in assay [2] was determined as 16.8 nM.
